Counter-ions that a name gives are not always drawn.
Legend:
[1] = tested on: cats; experiment: Effect on heart rate in cats; type: in vivo, cat; settings: anesthetized cats, 1.0 mg/kg i.v.; for Half-life: heart rate effect
Protocol: The cats were anesthetized with Nembutal (30 mg/kg i.p.) and chloralose urethane (40 mg/ml of chloralose+200 mg/ml of urethane, as required). The compound to be tested was injected in aqueous solution into the vena saphena or into the duodenum. The heart rate was recorded before and after the admiministration of the substance by means of a Grass tachograph from the electrocardiagram (taken from and chest wall) on a Grass polygraph.

[2] = tested on: rats; experiment: Effect on heart rate in rats; type: in vivo, rat; settings: anesthetized rats
Protocol: The effect of the test substances on heart rate was investigated in two rats with an average weight of 250 to 300 gm for each dose. The rats were anesthetized with pentobarbital (50 mg/kg i.p. and 20 mg/kg s.c.). The test substances were injected in aqueous solution into the jugular vein (0.1 ml/100 gm). The blood pressure was measured using a cannula inserted in a carotid artery and the heart rate was recorded from an ECG (IInd or IIIrd reading) obtained using needle electrodes. The heart rate of the animals in the control period was between 350 and 400 beats per minute (b/min).

[3] = Acute toxicity in mice; settings: mouse, in vivo, observation period 14 days
Protocol: The acute toxicity of the test compound was determined in mice (observationperiod: 14 days) after intravenous and peroral administration: […]

Structure (SMILES)	Reduction in Heart Rate [1] [%]	Half-life [1] [h]	Reduction in Heart Rate (20 Minutes) After Application of the Compound ([2]; 5.0 mg/kg i.v.) [Beats/Minutes]	Reduction in Heart Rate (20 Minutes) After Application of the Compound ([2]; 1.0 mg/kg i.v.) [Beats/Minutes]	Reduction in Heart Rate (20 Minutes) After Application of the Compound ([2]; 2.5 mg/kg i.v.) [Beats/Minutes]	other results
COc1ccc(CCN(C)CCCN2CCc3cc(OC)c(OC)cc3NC2=O)cc1OC [D, 1-[7,8-Dimethoxy-1,3,4,5-tetrahydro-2H-1,3-benzodiazepin-2-on-3-yl]-3-[N-methyl-(2-{3,4-dimethoxy-phenyl}-ethyl)-amino]-propane]	-41	1.33				
COc1ccc(CCN(C)CCCN2CCCc3cc(OC)c(OC)cc3C2=O)cc1OC [U, 1-[7,8-Dimethoxy-1,3,4,5-tetrahydro-5H-2-benzazepin-1-on-2-yl]-3-[N-methyl-N-(2-{3,4-dimethoxy-phenyl}-ethyl)-amino]-propane hydrochloride, reference compound]	-8.2	0.217	-18			
COc1cc(CCCCCN(C)CCCN2CCc3cc(OC)c(OC)cc3CC2=O)cc(OC)c1 [S, 1-[7,8-Dimethoxy-1,3,4,5-tetrahydro-2H-3-benzazepin-2-on-3-yl]-3-[N-methyl-N-(5-{3,5-dimethoxy-phenyl}-pentyl)-amino]-propane]			-18			
COc1ccc(CCN(C)CCCN2CCc3cc(OC)c(OC)cc3CC2=S)cc1OC [M, 1-[7,8-Dimethoxy-1,3,4,5-tetrahydro-2H-3-benzazepin-2-thion-3-yl]-N-[N-methyl-N-(2-{3,4-dimethoxy-phenyl}-ethyl)-amino]-propane]			-255	-73	-134	
COc1cc2c(cc1OC)CC(=O)N(CCCN(C)CCCc1cc(Cl)c(N)c(Cl)c1)CC2 [T, 1-[7,8-Dimethoxy-1,3,4,5-tetrahydro-2H-3-benzazepin-2-on-3-yl]-3-[N-methyl-N-(3-{4-amino-3,5-dichlorophenyl}-propyl)-amino]-propane]			-175			
COc1ccc(CCN(C)CCCN2C=Cc3cc(OC)c(OC)cc3CC2=O)cc1OC.Cl [B, 1-[7,8-Dimethoxy-1,3-dihydro-2H-3-benzazepin-2-on-3-yl]-3-[N-methyl-N-(2-{3,4-dimethoxy-phenyl}-ethyl)-amino]-propane hydrochloride]	-45	2				
COc1ccc(CCCN(C)CCCN2CCc3cc(OC)c(OC)cc3CC2=O)cc1OC.Cl [L, 1-[7,8-Dimethoxy-1,3,4,5-tetrahydro-2H-3-benzazepin-2-on-3-yl]-3-[N-methyl-N-(3-{3,4-dimethoxy-phenyl}-propyl)-amino]-propane hydrochloride]			-183	-51	-85	
COc1cc2c(cc1OC)CC(=O)N(CCCN(C)CCCCc1ccc(N(C)C)cc1)CC2 [Q, 1-[7,8-Dimethoxy-1,3,4,5-tatrahydro-2H-3-benzazepin-2-on-3-yl]-3-N-methyl-N-(4-{4-dimethylaino-phenyl}butyl)-amino]-propane hydrobromide]			-123	-94	-91	
COc1ccc(CCN(C)CCCN2CCc3cc(OC)c(OC)cc3C(O)C2=O)cc1OC (stereo not shown) [O]			-117	-83	-73	
COc1ccc(CCN(C)CCCN2CCc3cc(OC)c(OC)cc3CC2=O)cc1OC.Cl.Cl [A, 1-[7,8-Dimethoxy-1,3,4,5-tetrahydro-2H-3-benzazepin-2-on-3-yl]-3-[N-methyl-N-(2-{3,4-dimethoxy-phenyl}-ethyl)-amino]-propane dihydrochloride]	-55	2				LD50 at 336 h ([3]; iv): 89 mg/kg; LD50 at 336 h ([3]; po): 1350 mg/kg
COc1cc2c(cc1OC)CC(=O)N(CCCN(C)CCc1cc(Cl)c(N)c(Cl)c1)CC2 [F, 1-[7,8-Dimethoxy-1,3,4,5-tetrahydro-2H-3-benzazepin-2-on-3-yl]-3-[N-methyl-N-(2-{4-amino-3,5-dichloro-phenyl}-ethyl)-amino]-propane]	-51	2				
COc1ccc(CCN(C)CCCN2CCc3cc(OC)c(OC)cc3C(=O)C2=O)cc1OC [C, 1-[7,8-Dimethoxy-1,3,4,5-tetrahydro-2H-3-benzazepine-1,2-dion-3-yl]-3-[N-methyl-(2-}3,4-dimethoxy-phenyl}-ethyl)-amino]-propane hydrochloride]	-44	1.5				
COc1cc2c(cc1OC)CC(=O)N(CCCN(C)CCc1ccccc1)CC2.Cl.Cl [R, 1-[7,8-Dimethoxy-1,3,4,5-tetrahydro-2H-3-benzazepin-2-on-3-yl]-3-[N-methyl-N-(2-phenyl-ethyl)-amino]-propane dihydrochloride]			-135	-80	-110	
COc1cc2c(cc1OC)CC(=O)N(CCCN(C)CCc1ccc(N)c([N+](=O)[O-])c1)CC2 [P, 1-[7,8-Dimethoxy-1,3,4,5-tetrahydro-2H-3-benzazepin-2-on-3-yl]-3-[N-methyl-N-(2-{4-aino-3-nitro-phenyl}-ethyl)-amino]-propane hydrochloride]			-130			
COc1ccc(CCNCCCN2CCc3cc(OC)c(OC)cc3CC2=O)cc1OC.Cl [E, 1-[7,8-Dimethoxy-1,3,4,5-tetrahydro-2H-3-benzazepin-2-on-3-yl]-3-[N-(2-{3,4-dimethoxy-phenyl}-ethyl)-amino]-propane hydrochloride]	-45	1.5				
COc1ccc(C(O)CN(C)CCCN2CCc3cc(OC)c(OC)cc3CC2=O)cc1OC (stereo not shown) [N, 1-[7,8-Dimethoxy-1,3,4,5-tetrahydro-2H-3-benzazepin-2-on-3-yl]-3-[N-methyl-N-(2-hydroxy-2-{3,4-dimethoxyphenyl}-ethyl)-amino]-propane]			-173		-137	

Source: patent publication US4490369A, “Benzazepine derivatives, their pharmaceutical compositions and method of use” (Dr. Karl Thomae Gesellschaft mit beschrankter Haftung, priority 1981, dated 1984)
